ChEMBL document CHEMBL1153141, “Anti-tumor activity of a new series of benzoxazepine derivatives in breast cancer” (Bioorg Med Chem Lett, 2010)
Where a name gives a salt, the structure may show the parent alone. Activity calls are given as the source filed them. The calls are words filed in the database; no cut-off is given here.

Experiments:
Ishikawa = assay: Cytotoxicity against human Ishikawa cells after 18 hrs by MTT assay; format: functional, cell-based
MDA-MB-231 = assay: Cytotoxicity against human MDA-MB-231 cells after 18 hrs by MTT assay; format: functional, cell-based; conditions: MDA-MB-231, 18 h
MCF7 [1] = assay: Cytotoxicity against human MCF7 cells after 18 hrs by MTT assay; format: functional, cell-based; conditions: MCF7, 18 h
DU-145 = assay: Cytotoxicity against human DU145 cells after 18 hrs by MTT assay; format: functional, cell-based; conditions: DU-145, 18 h
HEK293 = assay: Cytotoxicity against HEK293 cells after 18 hrs by MTT assay; format: cell-based; conditions: human, hek293, 18 h
MCF7 [2] = assay: Induction of apoptosis in human MCF7 cells at 5 to 10 uM after 24 hrs using annexin V-propidium iodide staining by flow cytometry relative to control; format: functional, cell-based
MCF7 [3] = assay: Cell cycle arrest in human MCF7 cells assessed as accumulation at G0/G1 phase at 5 to 10 uM after 24 hrs using […] by flow cytometry relative to control; format: functional, cell-based
MCF7 [4] = assay: Antitumor activity against human MCF7 cells xenografted in mouse assessed as tumor volume regression at 8 to 16 mg/kg, po for 30 days; format: functional, organism-based

Structure (SMILES) | IC50 (Ishikawa) [µM] | IC50 (MDA-MB-231) [µM] | IC50 (MCF7 [1]) [µM] | IC50 (DU-145) [µM] | Activity (HEK293) | Activity (MCF7 [2]) | Activity (MCF7 [3]) | Activity (MCF7 [4])
CCN(CC)CCOc1ccc(C[C@H]2COc3c(cccc3OC)CN2S(=O)(=O)c2ccc(C)cc2)cc1 | > 50 | > 50 | > 50 | > 50 |  |  |  | 
COc1ccc2c(c1)OC[C@H](Cc1ccc(OCCN3CCOCC3)cc1)N(S(=O)(=O)c1ccc(C)cc1)C2 | > 50 | > 50 | > 50 | > 50 |  |  |  | 
COc1ccc2c(c1)OC[C@H](Cc1ccc(OCCN3CCCC3)cc1)N(S(=O)(=O)c1ccc(C)cc1)C2 | > 50 | > 50 | > 50 | > 50 |  |  |  | 
Cc1ccc(S(=O)(=O)N2Cc3ccccc3OCC2Cc2ccc(OCCN3CCOCC3)cc2)cc1 (stereo unspecified) | > 50 | > 50 | > 50 | > 50 |  |  |  | 
Cc1ccc(S(=O)(=O)N2Cc3ccccc3OC[C@@H]2C)cc1 | > 50 | > 50 | > 50 | > 50 |  |  |  | 
COc1cccc2c1OC[C@H](Cc1ccc(OCCN(C)C)cc1)N(S(=O)(=O)c1ccc(C)cc1)C2 | > 50 | > 50 | > 50 | > 50 |  |  |  | 
Cc1ccc(S(=O)(=O)N2Cc3ccccc3OC[C@@H]2Cc2ccc(OCCN3CCCC3)cc2)cc1 | 23.8 | 13 | 9.34 | 30 | Non-toxic |  |  | 
COc1ccc2c(c1)OC[C@H](Cc1ccc(OCCN3CCCCC3)cc1)N(S(=O)(=O)c1ccc(C)cc1)C2 | > 50 | > 50 | > 50 | > 50 |  |  |  | 
CCN(CC)CCOc1ccc(C[C@H]2COc3ccccc3CN2S(=O)(=O)c2ccc(C)cc2)cc1 | 22.6 | 17.4 | 6.53 | 23 |  | Active | Active | Active
Cc1ccc(S(=O)(=O)N2Cc3ccccc3OC[C@@H]2CC(C)C)cc1 | > 50 | > 50 | > 50 | > 50 |  |  |  | 
COc1ccc2c(c1)OC[C@H](Cc1ccc(OCCN(C)C)cc1)N(S(=O)(=O)c1ccc(C)cc1)C2 | > 50 | > 50 | > 50 | > 50 |  |  |  | 
Cc1ccc(S(=O)(=O)N2Cc3ccccc3OC[C@@H]2C(C)C)cc1 | > 50 | > 50 | > 50 | > 50 |  |  |  | 
Cc1ccc(S(=O)(=O)N2Cc3ccccc3OC[C@H]2Cc2ccccc2)cc1 | > 50 | > 50 | > 50 | > 50 |  |  |  | 
COc1cccc2c1OC[C@H](Cc1ccc(OCCN3CCOCC3)cc1)N(S(=O)(=O)c1ccc(C)cc1)C2 | > 50 | > 50 | > 50 | > 50 |  |  |  | 
Cc1ccc(S(=O)(=O)N2Cc3ccccc3OC[C@@H]2Cc2ccc(O)cc2)cc1 | 34 | > 50 | 29.1 |  |  |  |  | 
COc1cccc2c1OC[C@H](Cc1ccc(OCCN3CCCCCC3)cc1)N(S(=O)(=O)c1ccc(C)cc1)C2 | > 50 | > 50 | > 50 | > 50 |  |  |  | 
COc1cccc2c1OC[C@H](Cc1ccc(OCCN3CCCC3)cc1)N(S(=O)(=O)c1ccc(C)cc1)C2 | > 50 | > 50 | > 50 | > 50 |  |  |  | 
COc1cccc2c1OC[C@H](Cc1ccc(OCCN3CCCCC3)cc1)N(S(=O)(=O)c1ccc(C)cc1)C2 | > 50 | > 50 | > 50 | > 50 |  |  |  | 
CCC(C)[C@H]1COc2ccccc2CN1S(=O)(=O)c1ccc(C)cc1 (stereo partly specified) | > 50 | > 50 | > 50 | > 50 |  |  |  | 
Cc1ccc(S(=O)(=O)N2Cc3ccccc3OC[C@@H]2Cc2ccccc2)cc1 | > 50 | > 50 | > 50 | > 50 |  |  |  | 
Cc1ccc(S(=O)(=O)N2Cc3ccccc3OC[C@@H]2Cc2c[nH]c3ccccc23)cc1 | > 50 | > 50 | > 50 | > 50 |  |  |  | 
CC/C(=C(\c1ccccc1)c1ccc(OCCN(C)C)cc1)c1ccccc1 [TAMOXIFEN CITRATE] | 12.5 | 12.3 | 10.2 | 15.2 |  |  |  | 
